“And” between values parts separate entries of the source, which are not always exact repeats. Equal entries are not always repeated. Square brackets hold non-standard residues; d marks the D form. Peptide text beside a SMILES is read from it.
Legend:
Type in all cases: in vivo, C57BL/6 mice
[1] = MALDI-TOF-MSI brain distribution; details: single oral dose 10 mg/kg, 4 h post-administration, sagittal brain sections
Description: Frozen brains were stored at −80° C. until needed for analysis. Serial sagittal brain sections (10 μm thick) obtained using a cryostat (Leica Microsystems CM1100, Wetzlar, Germany), were thaw mounted onto an indium tin oxide (ITO) coated glass slide (Bruker, Bremen, Germany). Glass slides were removed from deep freeze and immediately transferred to a vacuum desiccator. Following 12 h desiccation time, the slides were scanned using a flatbed scanner (HP LaserJet 3055). The α-cyano-4-hydroxy cinnamic acid (CHCA) matrix (10 mg/mL) was prepared in 50% acetonitrile (ACN) containing 0.1% trifluoroacetic acid (TFA). The matrix solution was sonicated for 10 min and centrifuged at 10 000 rpm for 10 min before transfer to the ImagePrep (Bruker Daltonics). […] A standard solution of D-AIP (1 μg/mL was analyzed using matrix assisted laser desorption ionization time of flight mass spectrometry (MALDI TOF MS) operated both at reflectron and MALDI MS/MS (LIFT) modes respectively with the aid of the UltraflExtreme MALDI TOF/TOF 2 KHz smartbeam laser (Bruker Daltonics, Bremen, Germany) and FlexControl acquisition software ran in positive ion mode. The instrument was calibrated using standard peptide mix spotted with CHCA matrix on the ground steel target (Bruker Daltonics, Bremen, Germany) for 500-1500 m/z. Each spectrum was acquired from 500 laser shots. […]

[2] = Brain homogenate concentrations after single oral dose, LC-MS; details: for maximum brain concentration / peak brain concentration: brain homogenate; for maximum brain concentration / time of maximum brain concentration: female mice
Description: (§1) An internal standard (IS) for the reliable quantification of D-AIP in biological matrices was prepared by dimethylation to produce an analog of D-AIP by using a protocol previously described (Boersema et al., 2009, Nat Protoc, 4:484-494). Standard solutions (1 mg/mL) each of D-AIP and IS were prepared in deionized water and 100% methanol respectively. 100 μL of IS working solution was prepared at 50 ng/ml added to 25 μL of the sample (plasma or brain homogenate). The sample was vortexed for approximately 5 s and let stand for 10 min, then centrifuged at 16,000 g for 10 min. The supernatant was transferred to a 13×100 polypropylene tube and evaporated to dryness at 50° C. under gentle stream of nitrogen. The dry extract was re-suspended with 40 μL of 0.1% (v/v) formic acid (Sigma Aldrich, St-Louis, MO, USA) in deionized water and transferred to an injection vial for analysis.
(§2) Thermo Scientific TSQ Quantiva Triple Quadrupole mass spectrometer (San Jose, CA, USA) was interfaced with the Thermo Scientific UltiMate 3000 XRS UHPLC system (San Jose, CA, USA) using a pneumatic assisted heated electrospray ion source. Data acquisition and analysis were performed using Xcalibur 4.0 (San Jose, CA, USA).
(§3) […]radient elution was used with a Thermo Scientific BioBasic-8 column (100×2 mm I.D. 5 μm) operating at 40° C. The initial mobile phase condition consisted of 0.1% formic acid in acetonitrile and 0.1% formic acid in deionized water at a ratio of 5:95, respectively and this ration was maintained for 1 min. A linear gradient was applied from 1 to 5 min up to a ratio of 50:50 and maintained for 1 min. At 6.1 min, the mobile phase composition was reverted to 5:95 and the column was allowed to equilibrate for 7.9 min for a total run time of 14 min. The D-AIP and IS eluted at 4.7 and 4.8 min respectively at a fixed flow rate of 0.2 mL/min. The eluent was diverted to waste for the first minute and last six minutes. Extracted sample (5 μL) was injected and the acquisition time was set to 14 min.
(§4) The mass spectrometer was interfaced with ultra-high-performance liquid chromatography (UHPLC) system using a pneumatic assisted heated electrospray ion source with detection in positive ion mode using […] (MRM). For proper optimization of the mass spectrometer, standard solutions of D-AIP and IS were infused. The obtained source parameters were 50 and 15 arbitrary units respectively while using nitrogen for the sheath and auxiliary gases. The HESI electrode was set to 3500 V, capillary and vaporizer temperature were both set to 300° C. respectively. The MS/MS parameters were optimized using the doubly charged species. Argon was used as collision gas at a pressure of 2.5 mTorr. The precursor-ion reaction for D-AIP were set to 471.4→[591.8+648.3] and for the IS the MRM transitions were set to 499.4→[425.8+468.8+476.8]
(§5) Standard solution of D-AIP (1 mg/mL) was diluted in various volumes of deionized water to obtain series of standard working solutions. Calibration standards were prepared by fortifying the mouse plasma and mouse brain homogenate with the standard working solutions at 10% (v/v) to enable analytical concentration range of 1.00 to 1000 ng/ml. The method is linear using a linear regression weighted 1/x analysis, a value of R^2≥0.9979 was obtained for plasma and R^2≥0.9991 for brain homogenate. Samples were injected in duplicate with the calculated in each case and concentrations were processed from the equation obtained from the respective calibration curves using Xcalibur 4.0 software.
(§6) Animal care and all animal experiments were undertaken with federal guidelines and approval of the Institutional Animal Ethical Committee of McGill University, Montreal, Canada (Protocol Application Number: 2017-7880) and adequate measures were taken to minimize pain or discomfort. […]

[3] = Plasma pharmacokinetics after single oral dose, LC-MS; details: for CL/F (apparent total clearance from plasma) / λz (elimination rate constant): plasma
Description: as §1, §2, §3, §4, §5, §6

[4] = female C57BL/6 mice, single oral dose 10 mg/kg
[5] = female C57BL/6 mice, single oral dose 30 mg/kg
[6] = female C57BL/6 mice, single oral dose 100 mg/kg
[7] = male C57BL/6 mice, single oral dose 10 mg/kg
[8] = male C57BL/6 mice, single oral dose 100 mg/kg

Structure (SMILES): C[C@H](O)[C@@H](NC(=O)CNC(=O)[C@H](N)CCCNC(=N)N)C(=O)N[C@H](Cc1ccccc1)C(=O)N[C@H](CCC(=O)O)C(=O)NCC(=O)N[C@H](CCCCN)C(=O)N[C@H](Cc1ccccc1)C(=O)O [D-AIP] (H-[dR]G[dT][dF][dE]G[dK][dF]-OH; N-terminus and C-terminus assumed)
- brain distribution [1]: distributed across cortex, hippocampus, thalamus and different other brain regions
- tissue level at time at 4 h ([2]; C57BL/6, mouse, brain, male mice, highest dose (100 mg/kg oral), after 4 h, read-out: brain concentration during elimination): 38.5 ng/g
- maximum brain concentration ([2]; single oral dose 10 mg/kg, at 4 h): 28.91 ng/g
- maximum brain concentration ([2]; single oral dose 30 mg/kg, at 2 h): 136.29 ng/g
- maximum brain concentration ([2]; single oral dose 100 mg/kg, at 2 h): 707.95 ng/g
- peak brain concentration ([2]; male mice, single oral dose 10 mg/kg, at 4 h): 133.15 ng/g
- peak brain concentration ([2]; male mice, single oral dose 30 mg/kg, at 2 h): 262.00 ng/g
- peak brain concentration ([2]; male mice, single oral dose 100 mg/kg, at 0.5 h): 509.24 ng/g
- crossing of the BBB ([2]; female and male mice, single oral doses 10, 30, 100 mg/kg): crossed the BBB and reached the brain
- time of maximum brain concentration ([2]; single oral dose 10 mg/kg): 4 h
- time of maximum brain concentration ([2]; single oral dose 30 mg/kg): 2 h
- time of maximum brain concentration ([2]; single oral dose 100 mg/kg): 2 h
- time of peak brain concentration ([2]; male mice, single oral dose 10 mg/kg): 4 h
- time of peak brain concentration ([2]; male mice, single oral dose 30 mg/kg): 2 h
- time of peak brain concentration ([2]; male mice, single oral dose 100 mg/kg): 0.5 h
- dose relationship of AUC values ([3]; 10, 30, 100 mg/kg oral, both sexes): linear in both sexes
- plasma concentration decline ([3]; both sexes, all doses): reached baseline levels after 24 h
- CL/F (apparent total clearance from plasma) [3, 4]: 30.04 L/h
- λz (elimination rate constant) [3, 4]: 0.06 h⁻¹
- CL/F (apparent total clearance from plasma) [3, 5]: 42.02 L/h
- λz (elimination rate constant) [3, 5]: 0.10 h⁻¹
- CL/F (apparent total clearance from plasma) [3, 6]: 51.54 L/h
- λz (elimination rate constant) [3, 6]: 0.21 h⁻¹
- CL/F (apparent total clearance from plasma) [3, 7]: 35.81 L/h
- λz (elimination rate constant) [3, 7]: 0.15 h⁻¹
- CL/F (apparent total clearance from plasma) ([3]; male C57BL/6 mice, single oral dose 30 mg/kg): 36.02 L/h
- λz (elimination rate constant) ([3]; male C57BL/6 mice, single oral dose 30 mg/kg, 30 mg/kg): 0.21 h^−1 and 0.21. h^−1
- CL/F (apparent total clearance from plasma) [3, 8]: 48.79 L/h
- λz (elimination rate constant) [3, 8]: 0.24 h⁻¹
